PubChem BioAssay AID328 (DTP/NCI, 2004)
Where “and” joins values, the source holds several entries; their conditions need not be identical. Equal values may be shown once. Toxic doses and inconclusive results are not listed. Rule for the calls: active = survival T/C of 150% or more; inactive = T/C below 125% in these data.

Test system: BDF1 mice, P388 leukemia ip, median survival T/C
Test: NCI In Vivo Anticancer Drug Screen. Data for tumor model P388 Leukemia (intraperitoneal) in B6D2F1 (BDF1) mice
Conditions: endpoint: median survival time, higher = longer survival
Outline: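 Vehicle-dosed animals serve as the reference; survival of compound-dosed, tumour-implanted mice is divided by it.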

[1] = dose: 25.0 mg/kg/injection, schedule: Q01DX009 (ip), vehicle: saline with Tween-80
[2] = dose: 50.0 mg/kg/injection, schedule: Q01DX009 (ip), vehicle: saline with Tween-80
[3] = dose: 100.0 mg/kg/injection, schedule: Q01DX009 (ip), vehicle: saline with Tween-80
[4] = dose: 100.0 mg/kg/injection, schedule: Q04DX003 (ip), vehicle: saline with Tween-80
[5] = dose: 200.0 mg/kg/injection, schedule: Q01DX009 (ip), vehicle: saline with Tween-80
[6] = dose: 200.0 mg/kg/injection, schedule: Q04DX003 (ip), vehicle: saline with Tween-80
[7] = dose: 400.0 mg/kg/injection, schedule: Q01DX009 (ip), vehicle: saline with Tween-80
[8] = dose: 400.0 mg/kg/injection, schedule: Q04DX003 (ip), vehicle: saline with Tween-80
[9] = dose: 12.5 mg/kg/injection, schedule: Q01DX009 (ip), vehicle: saline with Tween-80
[10] = dose: 25.0 mg/kg/injection, schedule: Q04DX003 (ip), vehicle: saline with Tween-80
[11] = dose: 100.0 mg/kg/injection, schedule: Q01DX009 (ip), vehicle: Klucel (hydroxypropylcellulose) (HPC)
[12] = dose: 100.0 mg/kg/injection, schedule: Q04DX003 (ip), vehicle: Klucel (hydroxypropylcellulose) (HPC)
[13] = dose: 200.0 mg/kg/injection, schedule: Q04DX003 (ip), vehicle: Klucel (hydroxypropylcellulose) (HPC)
[14] = dose: 50.0 mg/kg/injection, schedule: Q01DX009 (ip), vehicle: other
[15] = dose: 100.0 mg/kg/injection, schedule: Q01DX009 (ip), vehicle: other

Measured: T/C

CCCCN(S(=O)(=O)C(F)(F)F)S(=O)(=O)C(F)(F)F
inactive: dose: 100.0 mg/kg/injection, schedule: Q01DX009 (ip), vehicle: saline 91 % of control | dose: 200.0 mg/kg/injection, schedule: Q01DX009 (ip), vehicle: saline 91 % of control | dose: 400.0 mg/kg/injection, schedule: Q01DX009 (ip), vehicle: saline 100 % of control

Cc1nc(OCc2ccccc2)c(C(=O)OCc2ccccc2)nc1C
inactive: [1] 100 % of control | [2] 106 % of control and 121 % of control | [3] 106 % of control and 108 % of control | [4] 94 % of control | [5] 100 % of control and 101 % of control | [6] 91 % of control | [7] 97 % of control and 124 % of control | [8] 100 % of control | dose: 500.0 mg/kg/injection, schedule: Q01DX009 (ip), vehicle: saline with Tween-80 106 % of control

O=S(=O)(O)c1ccc(-c2ccc(S(=O)(=O)O)cc2)cc1 (tested in a mixture with another compound)
active: dose: 21.0 mg/kg/injection, schedule: Q04DX003 (ip), vehicle: saline 200 % of control | dose: 33.0 mg/kg/injection, schedule: Q04DX003 (ip), vehicle: saline 270 % of control | dose: 50.0 mg/kg/injection, schedule: Q04DX003 (ip), vehicle: saline 300 % of control | dose: 110.0 mg/kg/injection, schedule: Q04DX003 (ip), vehicle: saline 300 % of control

[Cl][Hg][CH2]CC1CC=CCC1 (configuration not stated)
inactive: dose: 6.25 mg/kg/injection, schedule: Q01DX009 (ip), vehicle: saline with Tween-80 113 % of control | dose: 6.25 mg/kg/injection, schedule: Q04DX003 (ip), vehicle: saline sonified 104 % of control | [9] 117 % of control | dose: 12.5 mg/kg/injection, schedule: Q04DX003 (ip), vehicle: saline sonified 122 % of control | dose: 25.0 mg/kg/injection, schedule: Q04DX003 (ip), vehicle: saline sonified 118 % of control

COc1cc2c(cc1OC)-c1c(C)c3ccc(OC)c(NCc4ccccc4)c3c[n+]1CC2
inactive: dose: 1.56 mg/kg/injection, schedule: Q04DX003 (ip), vehicle: other 107 % of control | dose: 3.13 mg/kg/injection, schedule: Q04DX003 (ip), vehicle: other 100 % of control | dose: 6.25 mg/kg/injection, schedule: Q04DX003 (ip), vehicle: other 90 % of control

CCN1C=C/C(=C/c2cc3scc(-c4ccccc4)[n+]3c3ccccc23)c2ccccc21
inactive: dose: 0.08 mg/kg/injection, schedule: Q01DX009 (ip), vehicle: saline 100 % of control | dose: 0.16 mg/kg/injection, schedule: Q01DX009 (ip), vehicle: saline 108 % of control | dose: 0.32 mg/kg/injection, schedule: Q01DX009 (ip), vehicle: saline 120 % of control

C1CN2CCC1C1(C2)SSC2(CN3CCC2CC3)S1 (configuration not stated)
inactive: dose: 6.25 mg/kg/injection, schedule: Q04DX003 (ip), vehicle: saline 100 % of control | dose: 12.5 mg/kg/injection, schedule: Q04DX003 (ip), vehicle: saline 105 % of control | dose: 25.0 mg/kg/injection, schedule: Q04DX003 (ip), vehicle: saline 100 % of control

ClCCN(CCCl)CCCN1c2ccccc2Sc2ccccc21
active: dose: 3.12 mg/kg/injection, schedule: Q04DX003 (ip), vehicle: saline with Tween-80 150 % of control | dose: 12.5 mg/kg/injection, schedule: Q04DX003 (ip), vehicle: saline with Tween-80 158 % of control and 169 % of control | [10] 152 % of control

O=C1CCC(=O)N1CCC(=O)N(C(=O)NC1CCCCC1)C1CCCCC1
inactive: [9] 100 % of control | [1] 101 % of control | [2] 104 % of control and 111 % of control | [3] 101 % of control | [4] 118 % of control | [5] 100 % of control and 123 % of control | [6] 118 % of control | [7] 111 % of control | [8] 113 % of control

CCOC(=O)C(C#N)C1CCCCC1 (configuration not stated)
inactive: [11] 100 % of control | [12] 104 % of control | dose: 200.0 mg/kg/injection, schedule: Q01DX009 (ip), vehicle: Klucel (hydroxypropylcellulose) (HPC) 104 % of control | [13] 104 % of control | dose: 400.0 mg/kg/injection, schedule: Q01DX009 (ip), vehicle: Klucel (hydroxypropylcellulose) (HPC) 109 % of control | dose: 400.0 mg/kg/injection, schedule: Q04DX003 (ip), vehicle: Klucel (hydroxypropylcellulose) (HPC) 90 % of control

Nc1c(Cl)c(Cl)nc(C(=O)O)c1Cl
inactive: dose: 2.5 mg/kg/injection, schedule: Q01DX009 (ip), vehicle: saline 102 % of control | dose: 5.0 mg/kg/injection, schedule: Q01DX009 (ip), vehicle: saline 106 % of control | dose: 6.25 mg/kg/injection, schedule: Q01DX009 (ip), vehicle: Klucel (hydroxypropylcellulose) (HPC) 104 % of control | dose: 10.0 mg/kg/injection, schedule: Q01DX009 (ip), vehicle: saline 113 % of control | dose: 12.5 mg/kg/injection, schedule: Q01DX009 (ip), vehicle: Klucel (hydroxypropylcellulose) (HPC) 95 % of control | dose: 20.0 mg/kg/injection, schedule: Q01DX009 (ip), vehicle: saline 115 % of control | dose: 25.0 mg/kg/injection, schedule: Q01DX009 (ip), vehicle: Klucel (hydroxypropylcellulose) (HPC) 104 % of control | dose: 40.0 mg/kg/injection, schedule: Q01DX009 (ip), vehicle: saline 106 % of control | dose: 50.0 mg/kg/injection, schedule: Q01DX009 (ip), vehicle: Klucel (hydroxypropylcellulose) (HPC) 106 % of control | [11] 98 % of control

O=Cc1[nH]c(=S)[nH]c(=O)c1Cc1cccc(Cl)c1
inactive: [3] 115 % of control | [4] 113 % of control | [6] 118 % of control | [8] 113 % of control

Clc1nc(Cl)c(Cl)nc1Cl
inactive: [1] 100 % of control | [10] 97 % of control | [2] 97 % of control | dose: 50.0 mg/kg/injection, schedule: Q04DX003 (ip), vehicle: saline with Tween-80 113 % of control | [3] 113 % of control | [4] 108 % of control | [5] 113 % of control | [6] 97 % of control | [7] 106 % of control | [8] 106 % of control

Cc1ccc(C(=O)CCl)c(C)c1
inactive: [9] 100 % of control | [1] 100 % of control | [2] 95 % of control

N#CC1c2ccccc2C=NN1C(=O)N(c1ccccc1)c1ccccc1 (configuration not stated)
inactive: dose: 100.0 mg/kg/injection, schedule: Q04DX003 (ip), vehicle: other 90 % of control | dose: 200.0 mg/kg/injection, schedule: Q04DX003 (ip), vehicle: other 100 % of control | dose: 400.0 mg/kg/injection, schedule: Q04DX003 (ip), vehicle: other 100 % of control

CS(=O)(=O)Nc1ccccc1O
inactive: [14] 96 % of control | [15] 104 % of control | dose: 200.0 mg/kg/injection, schedule: Q01DX009 (ip), vehicle: other 97 % of control

Nc1ccc(/C=C2\C=Cc3ccccc32)cc1
inactive: dose: 17.75 mg/kg/injection, schedule: Q04DX003 (ip), vehicle: saline sonified 100 % of control | dose: 18.75 mg/kg/injection, schedule: Q01DX009 (ip), vehicle: saline with Tween-80 90 % of control | dose: 37.5 mg/kg/injection, schedule: Q01DX009 (ip), vehicle: saline with Tween-80 100 % of control | dose: 37.5 mg/kg/injection, schedule: Q04DX003 (ip), vehicle: saline sonified 100 % of control | dose: 75.0 mg/kg/injection, schedule: Q04DX003 (ip), vehicle: saline sonified 95 % of control

CCCCCCCCCCCCCCCCOc1ccc(Cl)cc1
inactive: dose: 25.0 mg/kg/injection, schedule: Q01DX001 (ip), vehicle: saline sonified 109 % of control | dose: 50.0 mg/kg/injection, schedule: Q01DX001 (ip), vehicle: saline sonified 100 % of control

C1=CC(=P(c2ccccc2)(c2ccccc2)c2ccccc2)C=C1
inactive: dose: 50.0 mg/kg/injection, schedule: Q01DX010 (ip), vehicle: saline 100 % of control | dose: 100.0 mg/kg/injection, schedule: Q01DX010 (ip), vehicle: saline 100 % of control | dose: 200.0 mg/kg/injection, schedule: Q01DX010 (ip), vehicle: saline 100 % of control | dose: 400.0 mg/kg/injection, schedule: Q01DX010 (ip), vehicle: saline 100 % of control

OC(CNc1ccc(CSc2ccccc2)cc1)c1ccccc1 (configuration not stated)
inactive: [14] 120 % of control | [15] 123 % of control

COC(OC)C(=O)/C=C/C(C)COC1CCCCO1 (configuration not stated)
inactive: dose: 50.0 mg/kg/injection, schedule: Q04DX003 (ip), vehicle: Klucel (hydroxypropylcellulose) (HPC) 113 % of control | [12] 118 % of control | [13] 109 % of control
